Reference: patent US20210128520A1, “NEUROPROTECTIVE ISOFLAVONE COMPOSITIONS AND METHODS” (UNM Rainforest Innovations, priority 2017, published 2021)
“Also recorded” adds a separate entry of the source.

What was measured:
[1] = system: primary cultured cortical neurons; assay: OGD/RO-induced cell death in primary cultured cortical neurons, LDH release assay; format: cell-based, rat; conditions: 2.5 μM of each isoflavone, pre-treatment, 4 h OGD + 20 h RO
Procedure: Primary cultured cortical neurons were isolated from embryonic Sprague-Dawley rats (E17). After digested by 0.25% trypsin (Invitrogen Corp., Carlsbad, Calif.), cells were collected and suspended in Dulbecco's modified eagle medium (DMEM) containing 10% horse serum, 1% L-glutamine and antibiotic mixture. The resulting single cell suspensions were seeded on 24-well or 6-well plates pre-treated with poly-D-lysine (Sigma-Aldrich, St. Louis, Mo.). After seeded for four hours, medium was replaced with neurobasal medium containing 2% B27, 1% L-glutamine and antibiotics mixture and cell culture was maintained at 37° C. and 5% CO2.
Both oxygen-glucose deprivation plus reoxygenation (OGD/RO) and excitotoxicity experiments were conducted. In OGD/RO experiments, primary cultured neurons were exposed to neurobasal medium without glucose and incubated in a hypoxia chamber (Billups-Rothenberg, Inc., San Diego, Calif.) perfused with a mixed gas containing 95% N2 and 5% CO2 until medium oxygen concentration reached 0.1%, which was monitored with a PA-10A paramagnetic 02 analyzer (Sable Systems International, North Las Vegas, Nev.). After cells were exposed to OGD at 37° C. for four hours, the medium was replaced with normal glucose-containing medium and the plates were put into normal culture condition for 20 hours for reoxygenation. In excitotoxicity experiments, primary cultured neurons were treated with L-glutamate (8 mM, Sigma-Aldrich, St. Louis, Mo.) for six hours. […]
LDH release assay was performed for detecting cell death with Cytotoxicity Detection Kit (Invitrogen Corp., Carlsbad, Calif.). In brief, culture medium was collected and incubated with the reaction mixture for 30 minutes at room temperature (24° C.). […] The optical density of the solution was measured at 490 nm on a microplate reader (Model 3350, Bio-Rad Laboratories, Inc., Hercules, Calif.). The cell death rate was calculated by using the formula: Cell death rate (%)=(Experimental absorbance value−culture medium absorbance value)/(Triton-X 100-treated absorbance value−culture medium absorbance value)×100%.

[2] = system: rat MCAO ischemia-reperfusion model; assay: MCAO cerebral ischemia-reperfusion model, infarct volume (TTC) and neurology score; format: in vivo; conditions: for infarct volume in comparison with vehicle group: 20 μmol/kg i.p., single isoflavone; for infarct volume in comparison with vehicle group / infarct volume: 1.5 h MCAO + 22.5 h reperfusion; for neurological function (neurological deficit score) versus vehicle group: 60 μmol/kg i.p.; for infarct volume: 60 μmol/kg i.p. 30 min before MCAO, vehicle 27.93%±7.1%
Source text: Male adult Sprague-Daweley rats (250 g to 270 g) were obtained from Laboratorial Animal Unit, the University of Hong Kong (HKU) and University of New Mexico (UNM). All animal experiments were approved and regulated by the Committee on the Use of Live Animals in Teaching and Research, HKU and the Laboratory Animal Care and Use Committee, UNM. All efforts were made to minimize animal suffering and to reduce the number of animals used.
Rats were subjected to MCAO to induce cerebral ischemia-reperfusion as previously described (Shen et al., 2006. J Neurochem 96(4):1078-1089). Briefly, rats were anaesthetized by inhalation of 5% isoflurane and maintained with 2% isoflurane in a mixture of 70% N2O and 30% 02. After vessels isolation, a 3/0 monofilament nylon suture (Johnson & Johnson Health Care Systems, Inc., Piscataway, N.J.) was inserted into the external carotid artery and advanced into the internal carotid artery and anterior cerebral artery to occlude the middle cerebral artery. After occlusion for 1.5 hours, the suture was removed to induce reperfusion and maintained for 22.5 hours. After operation, rats were transferred to intensive care incubator in which the temperature was kept at 37° C. until animals woke up completely.
Isoflavones (C, F, and D) were dissolved in dimethyl sulfoxide (DMSO) and diluted with peanut oil to the indicated working solution and intraperitoneally (i.p.) injected to rats 30 minutes before suture insertion for MCAO. The same volume of DMSO and peanut oil were used as vehicle control. In parallel experiments, for mechanistic study, ER antagonist ICI 182780 or PI3K inhibitor LY-294002 was intracerebroventricularly (i.c.v.) injected into the rat lateral ventricle 60 minutes before ischemia onset. Briefly, after anaesthetization, rat was placed on a stereotaxic apparatus and fixed well. A 22-gauge, 12 mm stainless-steel guide cannula was inserted in the left lateral ventricle of the brain. The needle was inserted 4.5 mm deep, 1.5 mm lateral to sagiture and 0.8 mm posterior to bregma to reach the lateral ventricle. Then, ICI 182780 dissolved in DMSO (1 μM) or LY-294002 (10 mM) was slowly injected into lateral ventricle and the needle was kept for at least 30 seconds before removal. The same volume of DMSO was used as a negative control.
After 24 hours of reperfusion, rat brains were isolated and sliced into coronal sections followed by staining with 2,3,5-triphenyltetrazolium chloride (TTC, Sigma-Aldrich, St. Louis, Mo.) at 37° C. for 20 minutes. The ischemic area was evaluated by calculating the hemispheric lesion area with ImageJ software (ImageJ-1.38x; Schneider et al., 2012. Nature methods 9(7):671-675), the relative infarct volume percentage (RIVP) was calculated as RIVP=IVA/TA×100%, IVA was the total infract area of five coronal sections, TA was the total area of five sections.
Neurological function was determined by 9-scale methods containing dysfunctional paw test, postural reflex test and circling test according to a previous report (Bederson et al., 1986. Stroke 17(3):472-476). Each score was summed and represented as a single overall neurological score (0 to 8).

[3] = AR extract orally administrated to rats; cited from earlier work

| SMILES | reduction in the rate of cell death as compared to vehicle control, OGD/RO [1] | infarct volume in comparison with vehicle group [2] | neurological function (neurological deficit score) versus vehicle group [2] | infarct volume [2] | effect of ICI 182780 co-treatment on neuroprotective effect on infarct volume ([2]; ICI 182780 i.c.v. 1 h before ischemia, isoflavone i.p. 30 min before ischemia) | infarct volume in comparison with vehicle group ([2]; listed as daidzein) | fraction metabolized into D and its conjugates [3] |
| --- | --- | --- | --- | --- | --- | --- | --- |
| COc1ccc(-c2coc3cc(O)ccc3c2=O)cc1O [C, calycosin] | 2% | no statistical difference; also recorded: no significant effect | much improved neurological function | 10.99±6.07% | partially blocked |  |  |
| O=c1c(-c2ccc(O)cc2)coc2cc(O)ccc12 [D, daidzein] | 2% | no statistical difference | much improved neurological function | 13.84±0.95% |  | no significant effect |  |
| COc1ccc(-c2coc3cc(O)ccc3c2=O)cc1 [F, formononetin] | 2% | no significant effect |  | 10.76±4.21% |  |  | about 50% |
